Results as given in the NIST ThermoML archive (doi:10.1016/j.fluid.2006.07.016).
± gives the expanded uncertainty stated by the source.

Key:
[1] = 298.2 K; 101.33 kPa; Liquid
[2] = refractive index (Na D-line) (dimensionless); settings: 298.2 K; 101.33 kPa; Liquid; Standard Abbe refractometry

SMILES	mass density [1]	refractive index [2]
CCCO [propan-1-ol]	799.7 ± 0.5 kg/m3	1.3839 ± 0.0007
CCCOC(C)=O [propyl ethanoate]	882.5 ± 0.4 kg/m3	1.3828 ± 0.0007
